According to publication PMC5442318, “Hundreds of dual-stage antimalarial molecules discovered by a functional gametocyte screen” (Nature Communications, 2017):
Like-named read-outs stand apart in the source and are kept apart here.

What was measured:
[1] = test system: P. falciparum stage V female gametocytes; assay: P. falciparum female gametocyte activation assay (Pf FGAA), 24 h or 48 h preincubation, Pfs25 expression readout; assay type: cell-based, Plasmodium falciparum NF54; conditions: mean, read-out: Gametocytes mean Pf FGAA IC50
In short: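 Female activation, triggered by xanthurenic acid and cooling, was scored by imaging Cy3-labelled anti-Pfs25 female gametes after 24 h at 26 °C. Beforehand, purified NF54 stage V gametocytes had been incubated with compound for either 24 h or 48 h (37 °C, 3% O2). Values are pIC50 from full-curve regression.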

[2] = test system: P. falciparum asexual blood stages; conditions: read-out: Pf Asexual blood stages XC50, cited from earlier work
[3] = test system: P. falciparum stages IV–V gametocytes; assay: Gametocytocidal ATP-depletion assay (gametocyte ATP bioluminescence); assay type: cell-based, Plasmodium falciparum
In short: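 Read-out is luciferase luminescence of parasite ATP (BacTiter-Glo), standing in for viability. Double-purified mature stage IV–V gametocytes, 12,500 per well, were exposed 48 h at 37 °C in low-O2 gas; screening concentration 2 μM.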

HepG2 cells = assay: HepG2 cytotoxicity assay; assay type: cell-based
In short: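 Once incubation ended, the HepG2 plates were warmed to room temperature for 30 min alongside the CellTiter-Glo reagent. Luminescent signal was developed by reagent addition and stabilized for 10 min before plate reading.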

[4] = P. falciparum female gametocytes
[5] = TCAMS asexual blood stage data, ref 1 (Gamo, F. J. et al., Nature 465, 305-310, 2010)
[6] = TCAMS data, ref 1 (Gamo et al., 2010)
[7] = P. falciparum female gametocyte activation assay

| IC50 [1, 4] [µM] | IC50 [1] [µM] | IC50 [1, 7] [µM] | SMILES | IC50 [2, 5] [µM] | Gametocytes mean ATP inhibition at 2µM [3] [%] | HepG2 cells mean TOX50 (HepG2 cells; HepG2 cells; mean) [µM] | IC50 [2, 6] [µM] | Gametocytes mean ATP inhibition at 2µM (%) [3] [%] | HepG2 cells mean TOX50 (HepG2 cells; mean) [µM] | HepG2 cells mean TOX50 (HepG2 cells; mean; HepG2 cells) [µM] |
| --- | --- | --- | --- | --- | --- | --- | --- | --- | --- | --- |
| 1.67 |  |  | CNCCNc1nccc(N2CCc3ncnc(Nc4ccc(OCc5cccc(F)c5)c(Cl)c4)c3C2)n1 [TCMDC-135478] | 0.2 | -9.54 | 5.62 |  |  |  |  |
| 1.22 |  |  | CCc1c(CCNCCCCCCNC(C)(C)Cc2ccc3c(c2CC)OCO3)ccc(OC)c1OC.Cl [TCMDC-132055] | 0.93 | 19.03 | 4.27 |  |  |  |  |
|  | 1.49 |  | Cl.O=C(NCCCCN1CCC(c2ccc3c(c2O)CCCC3)CC1)c1ccc(NC(=O)c2ccc(Cl)cc2)cc1 [TCMDC-138645] |  |  |  | 0.24 | -0.21 | 3.80 |  |
|  | 1.56 |  | CN(C)CCNCc1ccc(-c2ccc3c(Nc4ccc(Oc5ccccc5)cc4)ccnc3c2)o1 [TCMDC-138399] |  |  |  | 0.28 | 14.30 | 5.69 |  |
| 7.05 |  |  | Cc1sc2nc(CN3CCCC3)nc(-n3c(NCCO)nc4ccccc43)c2c1C [TCMDC-124811] | 1.24 | 42.91 | 25.73 |  |  |  |  |
| 2.15 |  |  | Br.CCCCc1ccc(CCNCCCCCCNCCc2ccc(O)c(O)c2)cc1 [TCMDC-131281] | 1.07 | 60.07 | 4.63 |  |  |  |  |
| 0.58 |  |  | COc1ccc(CCNCCCCCCNCCc2ccc(Cl)c3ccccc23)cc1OC.Cl [TCMDC-131270] | 0.58 | 67.75 | 2.12 |  |  |  |  |
|  | 1.29 |  | Nc1ccc2[nH]cc(C3CCN(CCC4CCN(C(=O)/C=C/c5ccc(Cl)c(Cl)c5)CC4)CC3)c2n1 [TCMDC-140062] |  |  |  | 0.74 | -11.87 | 8.13 |  |
|  | 4.42 |  | Nc1nc(N)c2c(ccc3[nH]c(-c4ccccc4Cl)nc32)n1 [TCMDC-137840] |  |  |  | 0.23 | 22.85 | 2.32 |  |
| 1.36 |  |  | O=S(=O)(Nc1cccc(F)c1CNCc1ccccn1)c1ccc(Cl)c(Cl)c1 [TCMDC-132598] | 0.89 | 51.32 | 20.42 |  |  |  |  |
|  | 1.41 |  | COc1ccc(NC(=O)c2ccc(OCCCCCCCOc3ccc(C(=O)Nc4ccc(OC)c(N5CCN(C)CC5)c4)cc3)cc2)cc1N1CCN(C)CC1.O=C(O)C(=O)O [TCMDC-139007] |  |  |  | 0.6 | -8.09 | 4.43 |  |
|  | 0.09 |  | COc1cccc(C23N=C(Nc4nc5ccccc5[nH]4)NC2(c2cccc(OC)c2)NC(Nc2nc4ccccc4[nH]2)=N3)c1 (stereo not drawn) [TCMDC-139087] |  |  |  | 0.16 | 64.05 | 40.74 |  |
| 2.1 |  |  | CN(C)Cc1cccc2nc(-c3csc(Cc4cc(Cl)ccc4OCc4ccccc4)n3)[nH]c12 [TCMDC-132174] | 1.12 | 47.80 | 13.04 |  |  |  |  |
|  | 0.88 |  | CC(C)Cn1cc(C2CCN(CCN3CCC(CNC(=O)c4ccc(-c5ccc(C(F)(F)F)cc5)cc4)CC3)CC2)c2ccccc21 [TCMDC-138852] |  |  |  | 0.75 | 30.37 | 4.80 |  |
|  |  | 1.17 | Cc1c(N=O)cc(C(C)(C)C)c(O)c1C(=O)Nc1ccc([N+](=O)[O-])cc1Cl [TCMDC-142233] | 0.77 | -7.78 |  |  |  |  | 1.78 |
| 0.44 |  |  | Cl.N[C@@H](CCNC1CCN(c2cccc(C(F)(F)F)c2)CC1)Cc1ccc(F)c(F)c1 [TCMDC-132301] | 1.28 | 70.53 | 3.76 |  |  |  |  |
|  | 1.03 |  | CC(C)Cn1cc(C2CCN(CCN3CCC(CNC(=O)c4ccc(-c5ccc(C#N)cc5)cc4)CC3)CC2)c2ccccc21 [TCMDC-138849] |  |  |  | 0.79 | 8.40 | 4.79 |  |
| 1.11 |  |  | Cc1ccccc1OCC(O)CNC1CCC(NCC(O)COc2ccccc2C)CC1 (stereo not drawn) [TCMDC-125142] | 1.19 | 39.31 | 4.07 |  |  |  |  |
|  | 1.39 |  | CC(CCCCCC(=O)Nc1ccc(CC(C)NCCc2cccc(Cl)c2)cc1)NCCc1cccc(Cl)c1 (stereo not drawn) [TCMDC-139800] |  |  |  | 0.95 | 20.09 | 2.55 |  |
|  | 1.27 |  | CC(CNC(=N)c1cccc(C(=N)NCC(C)Oc2cccc(C3CCCCC3)c2)n1)Oc1cccc(C2CCCCC2)c1.Cl (stereo not drawn) [TCMDC-137455] |  |  |  | 0.92 | 92.56 | 2.16 |  |
| 0.48 |  |  | CCc1c(CCNCCCCCCNC(C)Cc2ccc3c(c2CC)OCO3)ccc(OC)c1OC.Cl (stereo not drawn) [TCMDC-132052] | 0.87 | 35.74 | 2.46 |  |  |  |  |
|  | 2.44 |  | CC(C)(C)c1ccc(CNC(=O)c2ccc(CNC3CCC(N)CC3)s2)cc1 (stereo not drawn) [TCMDC-140777] |  |  |  | 0.53 | 10.64 | 8.95 |  |
|  |  | 0.42 | CC(C)(CN)c1cc(-c2ccc(Cl)c(O)c2)c(-c2ccncc2)o1.Cl [TCMDC-141334] | 1.14 | -5.00 |  |  |  |  | 9.98 |

| SMILES | IC50 [1, 4] [µM] | IC50 [1] [µM] | IC50 [1, 7] [µM] | IC50 [2, 5] [µM] | Gametocytes mean ATP inhibition at 2µM [3] [%] | HepG2 cells mean TOX50 (HepG2 cells; HepG2 cells; mean) [µM] | IC50 [2, 6] [µM] | Gametocytes mean ATP inhibition at 2µM (%) [3] [%] | HepG2 cells mean TOX50 (HepG2 cells; mean) [µM] | HepG2 cells mean TOX50 (HepG2 cells; mean; HepG2 cells) [µM] |
| --- | --- | --- | --- | --- | --- | --- | --- | --- | --- | --- |
| COc1ccc(CCNCCCCNCCc2ccc(OC)c3ccccc23)c2ccccc12.CS(=O)(=O)O [TCMDC-137961] |  | 0.48 |  |  |  |  | 0.45 | 90.63 | 2.14 |  |
| CN1CCC(N2CCN(Cc3cccc(-c4ccc(-c5nc6cc(C(F)(F)F)ccc6[nH]5)cc4)c3)CC2)CC1.O=C(O)C(F)(F)F [TCMDC-133842] | 1.09 |  |  | 0.14 | 4.02 | 2.44 |  |  |  |  |
| COc1ccc2nc(N=C3NC4(c5ccccc5)NC(=Nc5nc6ccc(OC)cc6[nH]5)NC4(c4ccccc4)N3)[nH]c2c1.O=C(O)C(F)(F)F (stereo not drawn) [TCMDC-139632] |  | 0.12 |  |  |  |  | 0.2 | 67.82 | 62.72 |  |
| COc1ccc2cc(CNCCCCCCNCc3ccc4cc(OC)ccc4c3)ccc2c1.CS(=O)(=O)O [TCMDC-137797] |  | 0.59 |  |  |  |  | 0.62 | 35.46 | 1.55 |  |
| Cl.c1ccc2c(NCCCCCCCCCNc3c4ccccc4nc4ccccc34)c3ccccc3nc2c1 [TCMDC-124286] | 1.8 |  |  | 0.3 | 51.90 | 4.90 |  |  |  |  |
| Cc1cccc(Nc2nc(N[C@@H]3CCCNC3)nc3cc[nH]c(=O)c23)c1.O=C(O)C(F)(F)F [TCMDC-134835] | 1.85 |  |  | 0.68 | -27.53 | 3.25 |  |  |  |  |
| Cc1cc(F)ccc1-c1nc(NCCCNCCc2ccccc2)nc2c1ccc(=O)n2-c1c(F)cccc1F.O=C(O)C(F)(F)F [TCMDC-141804] |  |  | 3.61 | 0.19 | 82.21 |  |  |  |  | 12.59 |
